{"source": "ChEMBL document CHEMBL3244164", "about": "“Synthesis and analgesic activity of 1,3-dihydro-3-(substituted phenyl)imidazo[4,5-b]pyridin-2-ones and 3-(substituted phenyl)-1,2,3-triazolo[4,5-b]pyridines” (J Med Chem, 1978)", "format_in_all_cases": "functional", "key": {"Rattus norvegicus [1]": {"test_system": "Rattus norvegicus", "assay": "Analgesic activity in Sprague-Dawley rat brewer's yeast treated foot assessed as response threshold at 16 to 32 mg/kg, po", "conditions": "dose mg/kg 16-32"}, "Rattus norvegicus [2]": {"test_system": "Rattus norvegicus", "assay": "Analgesic activity in Sprague-Dawley rat normal foot assessed as response threshold at 8 to 16 mg/kg, po", "conditions": "dose mg/kg 8-16"}, "Rattus norvegicus [3]": {"test_system": "Rattus norvegicus", "assay": "Analgesic activity in Sprague-Dawley rat normal foot assessed as response threshold at 16 to 32 mg/kg, po", "conditions": "dose mg/kg 16-32"}, "Rattus norvegicus [4]": {"test_system": "Rattus norvegicus", "assay": "Analgesic activity in Sprague-Dawley rat brewer's yeast treated foot assessed as response threshold at 8 to 16 mg/kg, po", "conditions": "dose mg/kg 8-16"}, "Rattus norvegicus [5]": {"test_system": "Rattus norvegicus", "assay": "Analgesic activity in Sprague-Dawley rat hyperesthesia model inflamed foot assessed as mean pain reaction threshold at 5 mg/kg, po after 1 hr"}, "Rattus norvegicus [6]": {"test_system": "Rattus norvegicus", "assay": "Analgesic activity in Sprague-Dawley rat assessed as increase in mean reaction time at 5 mg/kg, po after 5 hrs relative to control"}, "Rattus norvegicus [7]": {"test_system": "Rattus norvegicus", "assay": "Analgesic activity in Sprague-Dawley rat assessed as increase in mean reaction time at 10 mg/kg, po after 2 hrs relative to control"}, "Rattus norvegicus [8]": {"test_system": "Rattus norvegicus", "assay": "Analgesic activity in Sprague-Dawley rat assessed as increase in mean reaction time at 20 mg/kg, po after 5 hrs relative to control"}, "Rattus norvegicus [9]": {"test_system": "Rattus norvegicus", "assay": "Analgesic activity in Sprague-Dawley rat assessed as increase in mean reaction time at 10 mg/kg, po after 3 hrs relative to control"}, "Rattus norvegicus [10]": {"test_system": "Rattus norvegicus", "assay": "Analgesic activity in naloxone treated Sprague-Dawley rat hyperesthesia model normal foot assessed as mean pain reaction threshold at 20 mg/kg, po after 1 hr"}, "Rattus norvegicus [11]": {"test_system": "Rattus norvegicus", "assay": "Analgesic activity in Sprague-Dawley rat assessed as increase in mean reaction time at 20 mg/kg, po after 2 hrs relative to control"}, "Rattus norvegicus [12]": {"test_system": "Rattus norvegicus", "assay": "Analgesic activity in naloxone treated Sprague-Dawley rat hyperesthesia model inflamed foot assessed as mean pain reaction threshold at 10 mg/kg, po after 1 hr"}, "Rattus norvegicus [13]": {"test_system": "Rattus norvegicus", "assay": "Analgesic activity in Sprague-Dawley rat assessed as increase in mean reaction time at 10 mg/kg, po after 5 hrs relative to control"}, "Rattus norvegicus [14]": {"test_system": "Rattus norvegicus", "assay": "Analgesic activity in naloxone treated Sprague-Dawley rat hyperesthesia model inflamed foot assessed as mean pain reaction threshold at 5 mg/kg, po after 1 hr"}, "Rattus norvegicus [15]": {"test_system": "Rattus norvegicus", "assay": "Analgesic activity in Sprague-Dawley rat hyperesthesia model inflamed foot assessed as mean pain reaction threshold at 10 mg/kg, po after 1 hr"}, "Rattus norvegicus [16]": {"test_system": "Rattus norvegicus", "assay": "Analgesic activity in naloxone treated Sprague-Dawley rat hyperesthesia model inflamed foot assessed as mean pain reaction threshold at 20 mg/kg, po after 1 hr"}, "Rattus norvegicus [17]": {"test_system": "Rattus norvegicus", "assay": "Analgesic activity in naloxone treated Sprague-Dawley rat hyperesthesia model normal foot assessed as mean pain reaction threshold at 5 mg/kg, po after 1 hr"}, "Rattus norvegicus [18]": {"test_system": "Rattus norvegicus", "assay": "Analgesic activity in Sprague-Dawley rat assessed as increase in mean reaction time at 20 mg/kg, po after 4 hrs relative to control"}, "Rattus norvegicus [19]": {"test_system": "Rattus norvegicus", "assay": "Analgesic activity in Sprague-Dawley rat assessed as increase in mean reaction time at 10 mg/kg, po after 4 hrs relative to control"}, "Rattus norvegicus [20]": {"test_system": "Rattus norvegicus", "assay": "Analgesic activity in Sprague-Dawley rat assessed as increase in mean reaction time at 5 mg/kg, po after 2 hrs relative to control"}, "Rattus norvegicus [21]": {"test_system": "Rattus norvegicus", "assay": "Analgesic activity in Sprague-Dawley rat hyperesthesia model normal foot assessed as mean pain reaction threshold at 10 mg/kg, po after 1 hr"}, "Rattus norvegicus [22]": {"test_system": "Rattus norvegicus", "assay": "Analgesic activity in Sprague-Dawley rat assessed as increase in mean reaction time at 10 mg/kg, po after 1 hr relative to control"}, "Rattus norvegicus [23]": {"test_system": "Rattus norvegicus", "assay": "Analgesic activity in Sprague-Dawley rat brewer's yeast treated foot assessed as response threshold at 8 mg/kg, po"}, "Rattus norvegicus [24]": {"test_system": "Rattus norvegicus", "assay": "Analgesic activity in Sprague-Dawley rat assessed as increase in mean reaction time at 20 mg/kg, po after 3 hrs relative to control"}, "Rattus norvegicus [25]": {"test_system": "Rattus norvegicus", "assay": "Analgesic activity in Sprague-Dawley rat assessed as increase in mean reaction time at 5 mg/kg, po after 3 hrs relative to control"}, "Rattus norvegicus [26]": {"test_system": "Rattus norvegicus", "assay": "Analgesic activity in Sprague-Dawley rat assessed as increase in mean reaction time at 5 mg/kg, po after 1 hr relative to control"}, "Rattus norvegicus [27]": {"test_system": "Rattus norvegicus", "assay": "Analgesic activity in Sprague-Dawley rat assessed as increase in mean reaction time at 20 mg/kg, po after 1 hr relative to control"}, "Rattus norvegicus [28]": {"test_system": "Rattus norvegicus", "assay": "Analgesic activity in Sprague-Dawley rat hyperesthesia model normal foot assessed as mean pain reaction threshold at 20 mg/kg, po after 1 hr"}, "Rattus norvegicus [29]": {"test_system": "Rattus norvegicus", "assay": "Analgesic activity in Sprague-Dawley rat hyperesthesia model inflamed foot assessed as mean pain reaction threshold at 20 mg/kg, po after 1 hr"}, "Rattus norvegicus [30]": {"test_system": "Rattus norvegicus", "assay": "Analgesic activity in Sprague-Dawley rat assessed as increase in mean reaction time at 5 mg/kg, po after 4 hrs relative to control"}, "Rattus norvegicus [31]": {"test_system": "Rattus norvegicus", "assay": "Analgesic activity in naloxone treated Sprague-Dawley rat hyperesthesia model normal foot assessed as mean pain reaction threshold at 10 mg/kg, po after 1 hr"}, "Rattus norvegicus [32]": {"test_system": "Rattus norvegicus", "assay": "Antiinflammatory activity in Sprague-Dawley rat assessed as inhibition of carrageenan-induced paw edema at 30 mg/kg, po"}, "Rattus norvegicus [33]": {"test_system": "Rattus norvegicus", "assay": "Analgesic activity in Sprague-Dawley rat hyperesthesia model normal foot assessed as mean pain reaction threshold at 5 mg/kg, po after 1 hr"}, "Rattus norvegicus [34]": {"test_system": "Rattus norvegicus", "assay": "Antiarthritic activity in Lewis rat assessed as inhibition of adjuvant-induced paw swelling at 50 mg/kg, po qd for 13 days measured on day 14"}}, "data": [{"smiles": "Cn1c(=O)n(-c2ccc3c(c2)OCO3)c2ncccc21", "values": [{"measurement": "Activity", "setting": "Rattus norvegicus [1]", "result": ">25", "unit": "mm"}, {"measurement": "Activity", "setting": "Rattus norvegicus [2]", "result": ">50", "unit": "mm"}]}, {"smiles": "COc1ccc2c3c1O[C@H]1[C@@H](O)C=C[C@H]4[C@@H](C2)N(C)CC[C@@]341", "note": "[CODEINE]", "values": [{"measurement": "Activity", "setting": "Rattus norvegicus [3]", "result": ">40", "unit": "mm"}, {"measurement": "Activity", "setting": "Rattus norvegicus [4]", "result": ">25", "unit": "mm"}]}, {"smiles": "O=c1n(-c2ccc3c(c2)OCO3)c2ncccc2n1C1CCCC1", "values": [{"measurement": "Activity", "setting": "Rattus norvegicus [3]", "result": ">40", "unit": "mm"}, {"measurement": "Activity", "setting": "Rattus norvegicus [4]", "result": ">25", "unit": "mm"}]}, {"smiles": "C=CCn1c(=O)n(-c2ccc3c(c2)OCO3)c2ncccc21", "values": [{"measurement": "Activity", "setting": "Rattus norvegicus [5]", "result": 28.8, "unit": "mmHg"}, {"measurement": "Time", "setting": "Rattus norvegicus [6]", "result": 0, "unit": "s"}, {"measurement": "Time", "setting": "Rattus norvegicus [7]", "result": 7.3, "unit": "s"}, {"measurement": "Time", "setting": "Rattus norvegicus [8]", "result": 24.5, "unit": "s"}, {"measurement": "Time", "setting": "Rattus norvegicus [9]", "result": 11.6, "unit": "s"}, {"measurement": "Activity", "setting": "Rattus norvegicus [10]", "result": 79.3, "unit": "mmHg"}, {"measurement": "Time", "setting": "Rattus norvegicus [11]", "result": 21.7, "unit": "s"}, {"measurement": "Activity", "setting": "Rattus norvegicus [12]", "result": 47.8, "unit": "mmHg"}, {"measurement": "Time", "setting": "Rattus norvegicus [13]", "result": 6.2, "unit": "s"}, {"measurement": "Activity", "setting": "Rattus norvegicus [14]", "result": 33.4, "unit": "mmHg"}, {"measurement": "Activity", "setting": "Rattus norvegicus [15]", "result": 44.4, "unit": "mmHg"}, {"measurement": "Activity", "setting": "Rattus norvegicus [16]", "result": 66.6, "unit": "mmHg"}, {"measurement": "Activity", "setting": "Rattus norvegicus [17]", "result": 38.4, "unit": "mmHg"}, {"measurement": "Time", "setting": "Rattus norvegicus [18]", "result": 28.1, "unit": "s"}, {"measurement": "Time", "setting": "Rattus norvegicus [19]", "result": 7.1, "unit": "s"}, {"measurement": "Time", "setting": "Rattus norvegicus [20]", "result": 3.8, "unit": "s"}, {"measurement": "Activity", "setting": "Rattus norvegicus [21]", "result": 52.3, "unit": "mmHg"}, {"measurement": "Time", "setting": "Rattus norvegicus [22]", "result": 8.8, "unit": "s"}, {"measurement": "Activity", "setting": "Rattus norvegicus [23]", "result": ">34", "unit": "mm"}, {"measurement": "Time", "setting": "Rattus norvegicus [24]", "result": 24.4, "unit": "s"}, {"measurement": "Time", "setting": "Rattus norvegicus [25]", "result": 5.3, "unit": "s"}, {"measurement": "Activity", "setting": "Rattus norvegicus [2]", "result": ">50", "unit": "mm"}, {"measurement": "Time", "setting": "Rattus norvegicus [26]", "result": 0.1, "unit": "s"}, {"measurement": "Time", "setting": "Rattus norvegicus [27]", "result": 13.5, "unit": "s"}, {"measurement": "Activity", "setting": "Rattus norvegicus [28]", "result": 88.5, "unit": "mmHg"}, {"measurement": "Activity", "setting": "Rattus norvegicus [29]", "result": 74.4, "unit": "mmHg"}, {"measurement": "Time", "setting": "Rattus norvegicus [30]", "result": 3.9, "unit": "s"}, {"measurement": "Activity", "setting": "Rattus norvegicus [31]", "result": 71.1, "unit": "mmHg"}, {"measurement": "inhibition in vivo at 30 mg/kg", "setting": "Rattus norvegicus [32]", "result": 42, "unit": "%"}, {"measurement": "Activity", "setting": "Rattus norvegicus [33]", "result": 40.5, "unit": "mmHg"}, {"measurement": "inhibition in vivo at 50 mg/kg", "setting": "Rattus norvegicus [34]", "result": 78.2, "unit": "%"}]}]}
